molecular target: recombinant DYRK1A kinase (Homo sapiens, UniProt Q13627); test: DYRK1A kinase assay (Ser/Thr 18 peptide Z-lyte FRET); assay type: biochemical; details: DYRK1A kinase activity; 15 μM ATP, 4 μM Ser/Thr peptide 18, one hour at room temperature
Outline: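 Recombinant DYRK1A at 0.25 μg/mL was incubated 1 h at room temperature with 15 μM ATP, 4 μM Ser/Thr 18 peptide and compound, in duplicate, 11-point series from 10 μM. Phosphorylation was read by Z-lyte FRET after 1 h protease development, as the coumarin/fluorescein emission ratio converted to % phosphorylation. IC50 by non-linear regression.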

Structure (SMILES)	EC50 [nM]
CN1CCN(c2cc(-c3cnc4[nH]cc(-c5ccc6c(c5)C5(CCCCC5)NC6=O)c4c3)ccn2)CC1 [Compound 1398, 6′-(5-(2-(4-Methylpiperazin-1-yl)pyridin-4-yl)-1H-pyrrolo[2,3-b]pyridin-3-yl)spiro[cyclohexane-1,1′-isoindolin]-3′-one]	4
CN1CCN(c2cc(-c3cnc4[nH]cc(-c5ccc6ncccc6c5)c4c3)ccn2)CC1 [Compound 1404, 6-(5-(2-(4-Methylpiperazin-1-yl)pyridin-4-yl)-1H-pyrrolo[2,3-b]pyridin-3-yl)quinoline]	1
Clc1ccc2c(-c3ccc4ncccc4c3)c[nH]c2n1 [Compound 1446, 6-(6-Chloro-1H-pyrrolo[2,3-b]pyridin-3-yl)quinoline]	11
O=C(NCC(F)F)c1cnc2ccc(-c3c[nH]c4nc(C5CC5)ccc34)cn12 [Compound 1499, 6-(6-Cyclopropyl-1H-pyrrolo[2,3-b]pyridin-3-yl)-N-(2,2-difluoroethyl) imidazo[1,2-a]pyridine-3-carboxamide]	1
c1cn2cc(-c3c[nH]c4nc(C5CC5)ccc34)cnc2n1 [Compound 1500, 6-(6-Cyclopropyl-1H-pyrrolo[2,3-b]pyridin-3-yl)imidazo[1,2-a] pyrimidine]	5
c1nc2ccc(-c3c[nH]c4nc(C5CC5)ccc34)cn2n1 [Compound 1505, 6-(6-Cyclopropyl-1H-pyrrolo[2,3-b]pyridin-3-yl)-[1,2,4]triazolo[1,5-a] pyridine]	100
CN1CCN(C(=O)c2cnn3ccc(-c4c[nH]c5nc(C6CC6)ccc45)cc23)CC1 [Compound 1517, (5-(6-Cyclopropyl-1H-pyrrolo[2,3-b]pyridin-3-yl)pyrazolo[1,5-a]pyridin-3-yl)(4-methylpiperazin-1-yl)methanone]	66
COc1ncnc2ccc(-c3c[nH]c4nc(C5CC5)ccc34)cc12 [Compound 1533, 6-(6-Cyclopropyl-1H-pyrrolo[2,3-b]pyridin-3-yl)-4-methoxyquinazoline]	229
CN1CCN(c2ncnc3ccc(-c4c[nH]c5nc(C6CC6)ccc45)cc23)CC1 [Compound 1534, 6-(6-Cyclopropyl-1H-pyrrolo[2,3-b]pyridin-3-yl)-4-(4-methylpiperazin-1-yl)quinazoline]	12
c1nc2ccc(-c3c[nH]c4nc(C5CCC5)ccc34)cn2n1 [Compound 1547, 6-(6-Cyclobutyl-1H-pyrrolo[2,3-b]pyridin-3-yl)-[1,2,4]triazolo[1,5-a] pyridine]	121
CN1CCC(NC(=O)c2cnn3ccc(-c4c[nH]c5nc(C6CCC6)ccc45)cc23)CC1 [Compound 1556, 5-(6-Cyclobutyl-1H-pyrrolo[2,3-b]pyridin-3-yl)-N-(1-methylpiperidin-4-yl)pyrazolo[1,5-a]pyridine-3-carboxamide]	5
O=C(c1cnn2ccc(-c3c[nH]c4nc(C5CCC5)ccc34)cc12)N1CCCCC1 [Compound 1558, (5-(6-Cyclobutyl-1H-pyrrolo[2,3-b]pyridin-3-yl)pyrazolo[1,5-a]pyridin-3-yl)(piperidin-1-yl)methanone]	291
O=C1NCCOc2cc(-c3c[nH]c4nc(C5CCC5)ccc34)ccc21 [Compound 1571, 8-(6-Cyclobutyl-1H-pyrrolo[2,3-b]pyridin-3-yl)-3,4-dihydrobenzo[f] [1,4]oxazepin-5(2H)-one]	50
CN1CCC(Oc2ncnc3ccc(-c4c[nH]c5nc(C6CCC6)ccc45)cc23)CC1 [Compound 1577, 6-(6-Cyclobutyl-1H-pyrrolo[2,3-b]pyridin-3-yl)-4-((1-methylpiperidin-4-yl)oxy)quinazoline]	214
COc1ccc2c(-c3ccc4nccn4c3)c[nH]c2n1 [Compound 1666, 6-(6-Methoxy-1H-pyrrolo[2,3-b]pyridin-3-yl)imidazo[1,2-a]pyridine]	18
COc1ccc2c(-c3ccc4ncnn4c3)c[nH]c2n1 [Compound 1673, 6-(6-Methoxy-1H-pyrrolo[2,3-b]pyridin-3-yl)-[1,2,4]triazolo[1,5-a] pyridine]	65
CCOc1ccc2c(-c3ccc4ncnn4c3)c[nH]c2n1 [Compound 1757, 6-(6-Ethoxy-1H-pyrrolo[2,3-b]pyridin-3-yl)-[1,2,4]triazolo[1,5-a] pyridine]	144
CN1CCC(C(=O)Nc2ccc3c(-c4ccc5nn(C)cc5c4)c[nH]c3n2)CC1 [Compound 1831, 1-Methyl-N-(3-(2-methyl-2H-indazol-5-yl)-1H-pyrrolo[2,3-b]pyridin-6-yl)piperidine-4-carboxamide]	1
CN1CCC(C(=O)Nc2ccc3c(-c4ccn5ncc(-c6cccnc6)c5c4)c[nH]c3n2)CC1 [Compound 1847, 1-Methyl-N-(3-(3-(pyridin-3-yl)pyrazolo[1,5-a]pyridin-5-yl)-1H-pyrrolo[2,3-b]pyridin-6-yl)piperidine-4-carboxamide]	1
CN1CCC(C(=O)Nc2ccc3c(-c4ccnc(N5CCN(C)CC5)c4)c[nH]c3n2)CC1 [Compound 1855, 1-Methyl-N-(3-(2-(4-methylpiperazin-1-yl)pyridin-4-yl)-1H-pyrrolo [2,3-b]pyridin-6-yl)piperidine-4-carboxamide]	30
CN1CCC(C(=O)Nc2ccc3c(-c4ccc5c(c4)C(C)(C)CNC5=O)c[nH]c3n2)CC1 [Compound 1863, N-(3-(4,4-Dimethyl-1-oxo-1,2,3,4-tetrahydroisoquinolin-6-yl)-1H-pyrrolo[2,3-b]pyridin-6-yl)-1-methylpiperidine-4-carboxamide]	5
CN1CCC(C(=O)Nc2ccc3c(-c4ccc5ncccc5c4)c[nH]c3n2)CC1 [Compound 1866, 1-Methyl-N-(3-(quinolin-6-yl)-1H-pyrrolo[2,3-b]pyridin-6-yl) piperidine-4-carboxamide]	1
CN1CCN(c2cc(-c3c[nH]c4nc(NC(=O)c5ccncc5)ccc34)ccn2)CC1 [Compound 1897, N-(3-(2-(4-Methylpiperazin-1-yl)pyridin-4-yl)-1H-pyrrolo[2,3-b]pyridin-6-yl)isonicotinamide]	51
O=C(Nc1ccc2c(-c3ccc4c(c3)C3(CCNCC3)CC4=O)c[nH]c2n1)c1ccncc1 [Compound 1898, N-(3-(3-oxo-2,3-dihydrospiro[indene-1,4′-piperidin]-6-yl)-1H-pyrrolo [2,3-b]pyridin-6-yl)isonicotinamide]	20
CN1CCC2(CC1)CC(=O)c1ccc(-c3c[nH]c4nc(NC(=O)c5ccncc5)ccc34)cc12 [Compound 1899, N-(3-(1′-methyl-3-oxo-2,3-dihydrospiro[indene-1,4′-piperidin]-6-yl)-1H-pyrrolo[2,3-b]pyridin-6-yl)isonicotinamide]	14
O=C(Nc1ccc2c(-c3ccc4ncccc4c3)c[nH]c2n1)c1ccncc1 [Compound 1908, N-(3-(Quinolin-6-yl)-1H-pyrrolo[2,3-b]pyridin-6-yl)isonicotinamide]	1
CN1CCC(Oc2ncnc3ccc(-c4c[nH]c5nc(NC(=O)c6ccncc6)ccc45)cc23)CC1 [Compound 1913, N-(3-(4-((1-Methylpiperidin-4-yl)oxy)quinazolin-6-yl)-1H-pyrrolo [2,3-b]pyridin-6-yl)isonicotinamide]	5

More lines, now with the values ahead:

EC50 [nM]	Structure (SMILES)
4	Cc1ccc2c(-c3cc(F)c4nc(C)n(C(C)C)c4c3)c[nH]c2n1 [Compound 1459, 4-Fluoro-1-isopropyl-2-methyl-6-(6-methyl-1H-pyrrolo[2,3-b]pyridin-3-yl)-1H-benzo[d]imidazole]
57	Cc1ccc2c(-c3ccc4c(c3)C(C)(C)NC4=O)c[nH]c2n1 [Compound 1481, 3,3-Dimethyl-5-(6-methyl-1H-pyrrolo[2,3-b]pyridin-3-yl)isoindolin-1-one]
105	Cn1cc2cc(-c3c[nH]c4nc(C5CC5)ccc34)ccc2n1 [Compound 1495, 5-(6-Cyclopropyl-1H-pyrrolo[2,3-b]pyridin-3-yl)-2-methyl-2H-indazole]
38	Cn1nnc2ccc(-c3c[nH]c4nc(C5CC5)ccc34)cc21 [Compound 1507, 6-(6-Cyclopropyl-1H-pyrrolo[2,3-b]pyridin-3-yl)-1-methyl-1H-benzo[d][1,2,3]triazole]
43	Cc1nc2c(F)cc(-c3c[nH]c4nc(C5CCC5)ccc34)cc2n1C(C)C [Compound 1543, 6-(6-Cyclobutyl-1H-pyrrolo[2,3-b]pyridin-3-yl)-4-fluoro-1-isopropyl-2-methyl-1H-benzo[d]imidazole]
2050	Cc1nc2cnc(-c3c[nH]c4nc(C5CCC5)ccc34)cc2n1C(C)C [Compound 1546, 6-(6-Cyclobutyl-1H-pyrrolo[2,3-b]pyridin-3-yl)-1-isopropyl-2-methyl-1H-imidazo[4,5-c]pyridine]
8	O=C(NCC(F)F)c1cnn2ccc(-c3c[nH]c4nc(C5CCC5)ccc34)cc12 [Compound 1554, 5-(6-Cyclobutyl-1H-pyrrolo[2,3-b]pyridin-3-yl)-N-(2,2-difluoroethyl) pyrazolo[1,5-a]pyridine-3-carboxamide]
7	COc1ccc2c(-c3ccc4ncccc4c3)c[nH]c2n1 [Compound 1698, 6-(6-Methoxy-1H-pyrrolo[2,3-b]pyridin-3-yl)quinoline]
8	Cc1nc2c(F)cc(-c3c[nH]c4nc(CO)ccc34)cc2n1C(C)C [Compound 1795, (3-(4-Fluoro-1-isopropyl-2-methyl-1H-benzo[d]imidazol-6-yl)-1H-pyrrolo[2,3-b]pyridin-6-yl)methanol]
3	O=C(Nc1cccnc1)c1cnn2ccc(-c3c[nH]c4nc(CO)ccc34)cc12 [Compound 1809, 5-(6-(Hydroxymethyl)-1H-pyrrolo[2,3-b]pyridin-3-yl)-N-(pyridin-3-yl) pyrazolo[1,5-a]pyridine-3-carboxamide]
1	Cc1nc2c(F)cc(-c3c[nH]c4nc(NC(=O)C5CCN(C)CC5)ccc34)cc2n1C(C)C [Compound 1837, N-(3-(4-Fluoro-1-isopropyl-2-methyl-1H-benzo[d]imidazol-6-yl)-1H-pyrrolo[2,3-b]pyridin-6-yl)-1-methylpiperidine-4-carboxamide]

— patent US20230192686A1, “1H-PYRROLO[2,3-B]PYRIDINES AND PREPARATION AND USES THEREOF” (BioSplice Therapeutics, Inc., priority 2021, published 2023)
